Data on 1 compound can be found in patent publication US20040219202A1, “Pharmaceutical composition comprising lipids comprising a polar and a nonpolar moiety” (priority 2001, published 2004).

Common to all, as to assay type: cell-based
The test system of one assay is COS-7 cells. Put plainly: Transfection of COS-7 cells with LMDs (liposome:mu:DNA), β-galactosidase reporter assay. To be noted: LMDs of pure DOTAP or DOTAP-analogue liposomes, FIG. 20. The procedure: (§1) Purity of the lipids was checked by TLC or HPLC. All lipids were stored as stock solutions in anhydrous CH2Cl2, at concentrations of either 5 mg/ml or 10 mg/ml, at −80° C., under Ar. In order to prepare cationic liposomes, lipids were added to a round-bottomed flask, via syringe, under Ar, and further freshly distilled CH2Cl2 was added, if necessary, to give a concentration of around 2.5 mg/ml. Then, 4 mM HEPES pH 7.0 (1 ml) was added, and the biphasic system was swirled to mix. A liposomal suspension was created by removing the organic solvent under reduced pressure at 25° C., followed by sonication for 2-5 min. in a water bath sonicator. Doubly-distilled water was added, if necessary, to return the total volume to 1 ml. All liposomal solutions were prepared at a final concentration of 5 mg/ml. The pH of the liposomal suspension was checked by pH Boy (Camlab Ltd., Over, Cambridgeshire, UK) and adjusted to pH 7.0±0.1 with concentrated aqueous solutions of HCl and NaOH.
(§2) Liposomes were extruded (Extruder, Northern Upids, Inc., Vancouver, BC, Canada) by passing through two 100 nm polycarbonate filters (Isopore™ Membrane Filters, Millipore (UK) Ltd., Watford, Hertfordshire, UK) ten times. For each preparation, the size distribution of liposomes was measured by photon correlation spectroscopy (PCS) (Coulter® N4 Plus Submicron Particle Sizer, Beckman Coulter, High Wycombe, Buckinghamshire, UK). For phospholipid-containing liposomes, phospholipid concentrations were checked by the Stewart assay.^23 In each case, a final lipid concentration of 4.7±0.1 mg/ml was observed. For non-phospholipid containing liposomes, lipid loss was also inevitable on extrusion. For all fast-extruding liposomal suspensions, total lipid concentration was assumed to be 4.7 mg/ml. For slower extrusions, total lipid concentrations were assumed to be 4.3 mg/ml. Very slowly extruding liposomes were extruded three times only and assumed to be 4.7 mg/ml.
(§3) Plasmid DNA containing the β-galactosidase gene (pNGVL1-nt-beta-gal; 7.53 kbp) was stored as frozen aliquots at −80° C., at a concentration of 1.2 mg/ml; μ (mu) peptide (adenoviral core peptide [H2N-Met-Arg-Arg-Ala-His-His-Arg-Arg-Arg-Arg-Ala-Ser-His-Arg-Arg-Met-Arg-Gly-Gly-CO2H]) was synthesised as described previously,^7 and maintained at 4° C. in aliquots of 1 mg/ml. Mu-DNA complexes were made by adding plasmid DNA to mu in 4 mM HEPES at a ratio of 1:0.6 (w/w) with fast vortexing. LMDs were prepared by complexing mu-DNA particles with cationic liposomes (as prepared above) in a ratio of 1:12 (w/w), such that all LMDs for all formulations were substantially cationic. For each preparation, the size distribution of LMDs was measured by PCS.
COS-7 cells were maintained in DMEM/10% FCS/1% penicillin-streptomycin (Gibco™) at 37° C./5% CO2 in a humidified atmosphere. Twenty-four hours prior to transfection, 10 000 cells per well were seeded in 48-well microtitre plates (Coming Costar) in 500 μl medium. Plasmid DNA and Transfast™ controls were prepared as above. 5 μl (0.5 μg DNA) of LMD formulation was added to each well. All experiments were performed in quadruplicate. The plate was swirled for 30 s, and incubated for 1 h at 37° C. Medium was then removed, and 500 μl of fresh medium was added. The cells were incubated at 37° C. for a further 24 h.
Medium was aspirated from the wells and the cell layer was washed with phosphate buffered saline (PBS) (Gibco™). The cells of each well were lysed in 150 μl lysis reagent (prepared according to the supplier's protocol; β-Gal Reporter Gene Assay, Roche Diagnostics GmbH, D-68305 Mannheim, Germany) at room temperature for 30 min. After lysis, […], 50 μl and 20 μl, of each cell suspension were used for the determination of β-galactosidase activity and for the determination of total cellular protein (to normalise results), respectively.
In the β-gal assay, 100 μl of the substrate reagent was added to 50 μl of the cell suspension in a white 96-well microplate (Coming Costar). […]
For orientation: Reporter assays use an easily measured gene product as a stand-in for the process of interest.

For another assay, the system named is Panc-1 cells. Put plainly: Transfection of Panc-1 cells with LMDs (liposome:mu:DNA), β-galactosidase reporter assay. The following applies: LMDs composed entirely of DOTAP or DOTAP-analogue liposomes, FIG. 19. As for the experimental part: as §1, §2, §3
Panc-1 cells were maintained in RPMI/10% FCS/1% penicillin-streptomycin (Gibco™, Invitrogen Corporation, Paisley, Scotland, UK) at 37° C./5% CO2 in a humidified atmosphere. Twenty-four hours prior to transfection, 30 000 cells per well were seeded in 48 well microtitre plates (Corning Costar, Merck Ltd., Lutterworth, Leicestershire, UK) in 500 μl medium. As a control, plasmid DNA (0.5 μg in 200 μl medium) was added to a well. As a positive control, 1.5 μl Transfast™ (Promega Corporation, Madison, Wis., USA; prepared according to the supplier's protocol) in 200 μl medium was complexed with plasmid DNA (0.5 μg) and added to a well. 5 μl (0.5 μg DNA) of LMD formulation was added to each well. All experiments were performed in quadruplicate. The plate was swirled for 30 s, and incubated for 1 h at 37° C. Medium was then removed, and 500 μl of fresh medium was added. The cells were incubated at 37° C. for a further 24 h.
Medium was aspirated from the wells and the cell layer was washed with phosphate buffered saline (PBS) (Gibco™). The cells of each well were lysed in 150 μl lysis reagent (prepared according to the supplier's protocol; β-Gal Reporter Gene Assay, Roche Diagnostics GmbH, D-68305 Mannheim, Germany) at room temperature for 30 min. […]

In a further assay the test system is Panc-1 and COS-7 cells. In words: In vitro transfection of LMDs, overall statements without a single cell line. To be noted: cell line not stated or across Panc-1 and COS-7 cells. The procedure: as §1, with “The pH of the liposomal suspension was checked by pH Boy (Camlab Ltd., Over, Cambridgeshire, UK) and adjusted to pH 7.0±0.1 with concentrated aqueous solutions of HCl and NaOH.” left out
Liposomes were extruded (Extruder, Northern Upids, Inc., Vancouver, BC, Canada) by passing through two 100 nm polycarbonate filters (Isopore™ Membrane Filters, Millipore (UK) Ltd., Watford, Hertfordshire, UK) ten times. For each preparation, the size distribution of liposomes was measured by photon correlation spectroscopy (PCS) (Coulter® N4 Plus Submicron Particle Sizer, Beckman Coulter, High Wycombe, Buckinghamshire, UK). […]

Entries after “also recorded” stand apart in the source; their conditions may differ.

As for `CCCCCCCC/C=C\CCCCCCCC(=O)OCC(C[N+](C)(C)C)OC(=O)CCCCCCC/C=C\CCCCCCCC` (stereo not drawn) [DOTAP], the “Transfection (β-galactosidase activity)” value is “transfect similarly” in the assay with COS-7 cells and “transfect less well than the positive control Transfast” in the assay with Panc-1 cells. The “In vitro transfection, overall statement” value with Panc-1 and COS-7 cells was “transfect worse than CDAN:DOPE, 1:1 liposomes; also recorded: generally poor”.
